Test results from the supplement of paper PMC11208160.

test: recombinant barcode read abundance after kanamycin selection (control-corrected) (log10(CPM+1)); higher = more efficient recombination; sequences stand for … in AGTGCAGAGAAAATCGGCCAGTTTTCTCTGCCTGCAGTCCGCATGCCGT…AGATTTATGCAGCGGACTGCCTTTCTCCCAAAGTGATAAACCGGACAGTATCATGGACCGGTTTTCCCGGTAATCCGTATTTGCAAGGTTGGTTTCACT; site = the 11-nt target
Procedure: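 Pooled E. coli target-specificity screen for the IS621 bridge recombinase. Each library plasmid pairs an 11-nt target (CT core) with a bridge RNA whose target-binding loop (9-nt LTG + 4-nt RTG) is reprogrammed; the rest of the 177-nt WT IS621 bridge RNA scaffold is fixed. The plasmid is co-electroporated with a WT donor plasmid; recombinase is induced with 0.1 mM IPTG and recombinants are selected on kanamycin. Recombinant barcodes are sequenced, converted to CPM, averaged over two biological replicates and corrected by the unselected control CPM. Molecule = full bridge RNA written as DNA: LTG = specificity nt 1-9, RTG = reverse complement of specificity nt 8-11, in the WT scaffold.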
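Note: IS621 recombinase and bridge RNA in Escherichia coli cells.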

Going from “ACCCAGCCTTGGGTTCTAACCTGTTGCAT (site ACCCAGCCTAC)” to “ACCCAGCCTTGGGTTCTAACCTGTTGCAT (site ACCCAGCCTAG)”, the “recombinant barcode read abundance (log10)” value rises from 0.265 to 0.68.

Going from “ACCCAGCCTTGGGTTCTAACCTGTTGCAT (site ACCCAGCCTAT)” to “ACCCAGCCTTGGGTTCTAACCTGTTGCTT (site ACCCAGCCTAA)”, the “recombinant barcode read abundance (log10)” value falls from 2.45 to 1.77.

Going from “ACCCAGCCTTGGGTTCTAACCTGTTGCTT (site ACCCAGCCTAC)” to “ACCCAGCCTTGGGTTCTAACCTGTTGCTT (site ACCCAGCCTAG)”, the “recombinant barcode read abundance (log10)” value rises from 0.278 to 0.758.

First: ACCCAGCCTTGGGTTCTAACCTGTTGCTT (site ACCCAGCCTAT)
Second: ACCCGTACTTGGGTTCTAACCTGTTGCCT (site ACCAGTACTAG)
The “recombinant barcode read abundance (log10)” value of the first is higher: 1.41 for the first, 0.063 for the second.

First: ACCCGTACTTGGGTTCTAACCTGTTGCCT (site ACCCGTACTAG)
Second: ACCCGTACTTGGGTTCTAACCTGTTGCCT (site ACCGGTACTAG)
The “recombinant barcode read abundance (log10)” value of the first is higher: 1.26 for the first, 0.0386 for the second.

Going from “ACCCGTACTTGGGTTCTAACCTGTTGCCT (site ACCTGTACTAG)” to “ACCCGTCCTTGGGTTCTAACCTGTTGCAG (site ACCCGTCCTCT)”, the “recombinant barcode read abundance (log10)” value rises from 0.485 to 2.67.

First: ACCCGTCCTTGGGTTCTAACCTGTTGCAG (site GGCCGTCCTCT)
Second: ACCCTAGCTTGGGTTCTAACCTGTTGCCA (site ACCCTAGCTTG)
The “recombinant barcode read abundance (log10)” value of the first is lower: 0.051 for the first, 1.52 for the second.

“ACCCTAGCTTGGGTTCTAACCTGTTGCCA (site ATCGTAGCTTG)” and “ACCCTAGCTTGGGTTCTAACCTGTTGCTC (site AACCTAGCTTA)” are within 0.2 log units of each other in “recombinant barcode read abundance (log10)” value: 0.0661 for the first, 0.191 for the second.

First: ACCCTAGCTTGGGTTCTAACCTGTTGCTC (site ACCCTAGCTGA)
Second: ACCCTATCTTGGGTTCTAACCTGTTGCTT (site ACCCTATCTAA)
The “recombinant barcode read abundance (log10)” value of the first is higher: 1.95 for the first, 0.944 for the second.

Compared with “ACCCTATCTTGGGTTCTAACCTGTTGCTT (site ACTCTGTCTAA)”, “ACCGACCCTTGGGTTCTAACCTGTTGCAT (site ACCGACCCTAT)” is higher in “recombinant barcode read abundance (log10)” value: 0.114 for the first, 1.67 for the second.

“ACCGACCCTTGGGTTCTAACCTGTTGCAT (site TAGTTTGCTCG)” and “ACCGCGTCTTGGGTTCTAACCTGTTGCAT (site ACCGCGTCTAT)” are within 0.2 log units of each other in “recombinant barcode read abundance (log10)” value: 0.401 for the first, 0.521 for the second.

“ACCGCGTCTTGGGTTCTAACCTGTTGCAT (site TTGATAGCTTA)” and “ACCGCTCCTTGGGTTCTAACCTGTTGCCT (site AACGCTCCTAG)” are within 0.2 log units of each other in “recombinant barcode read abundance (log10)” value: 0.0509 for the first, 0.0208 for the second.

First: ACCGCTCCTTGGGTTCTAACCTGTTGCCT (site ACCGCTCCTAG)
Second: ACCGCTCCTTGGGTTCTAACCTGTTGCCT (site AGCGCTCCTAG)
The “recombinant barcode read abundance (log10)” value of the first is higher: 0.297 for the first, 0.0225 for the second.

“ACCGCTCCTTGGGTTCTAACCTGTTGCCT (site ATCGCTCCTAG)” and “ACCTACCCTTGGGTTCTAACCTGTTGCCT (site ACATACACTAG)” are within 0.2 log units of each other in “recombinant barcode read abundance (log10)” value: 0.0271 for the first, 0.136 for the second.

“ACCTACCCTTGGGTTCTAACCTGTTGCCT (site ACCTACCCTAG)” and “ACCTACGCTTGGGTTCTAACCTGTTGCCT (site ACCTACGCTAG)” are within 0.2 log units of each other in “recombinant barcode read abundance (log10)” value: 1.14 for the first, 1.01 for the second.

First: ACCTACGCTTGGGTTCTAACCTGTTGCCT (site ACCTACTCTAG)
Second: ACCTACTCTTGGGTTCTAACCTGTTGCTT (site ACCTACTCTAA)
The “recombinant barcode read abundance (log10)” value of the first is lower: 0.23 for the first, 1.33 for the second.

“ACCTACTCTTGGGTTCTAACCTGTTGCTT (site AGCTACCCTAA)” and “ACCTCGGCTTGGGTTCTAACCTGTTGCTG (site ACCTCGGCTCA)” are within 0.2 log units of each other in “recombinant barcode read abundance (log10)” value: 0.315 for the first, 0.399 for the second.

First: ACCTCGGCTTGGGTTCTAACCTGTTGCTG (site TGGCAATCTAG)
Second: ACCTTAGCTTGGGTTCTAACCTGTTGCTT (site ACCTTAGCTAA)
The “recombinant barcode read abundance (log10)” value of the first is lower: 0.0759 for the first, 0.297 for the second.

Going from “ACCTTAGCTTGGGTTCTAACCTGTTGCTT (site TAGGCGACTTG)” to “ACCTTGTCTTGGGTTCTAACCTGTTGCTA (site ACCTTGTCTTA)”, the “recombinant barcode read abundance (log10)” value rises from 0.0735 to 0.777.

First: ACCTTGTCTTGGGTTCTAACCTGTTGCTA (site GCCATGTCTTA)
Second: ACGAAGGCTTGGGTTCTAACCTGTTGCCT (site ACGAAGGCTAG)
The “recombinant barcode read abundance (log10)” value of the first is lower: 0.0578 for the first, 0.696 for the second.

“ACGAAGGCTTGGGTTCTAACCTGTTGCCT (site ACGAAGGCTCG)” and “ACGAGCGCTTGGGTTCTAACCTGTTGCCT (site ACGAACGCTAG)” are within 0.2 log units of each other in “recombinant barcode read abundance (log10)” value: 0.0407 for the first, 0.132 for the second.

Going from “ACGAGCGCTTGGGTTCTAACCTGTTGCCT (site ACGACCGCTAG)” to “ACGAGCGCTTGGGTTCTAACCTGTTGCCT (site ACGAGCGCTAG)”, the “recombinant barcode read abundance (log10)” value rises from 0.0589 to 1.54.

First: ACGAGCGCTTGGGTTCTAACCTGTTGCCT (site ACGATCGCTAG)
Second: ACGAGCTCTTGGGTTCTAACCTGTTGCTG (site ACGAGCTCTCA)
The “recombinant barcode read abundance (log10)” value of the first is lower: 0.0598 for the first, 1.84 for the second.

Compared with “ACGAGCTCTTGGGTTCTAACCTGTTGCTG (site CCGCGCTCTCA)”, “ACGAGTACTTGGGTTCTAACCTGTTGCTG (site ACGAGTACTCA)” is higher in “recombinant barcode read abundance (log10)” value: 0.0264 for the first, 1.02 for the second.

Compared with “ACGAGTACTTGGGTTCTAACCTGTTGCTG (site ACGAGTACTCC)”, “ACGAGTCCTTGGGTTCTAACCTGTTGCGT (site ACGAGTCCTAC)” is higher in “recombinant barcode read abundance (log10)” value: 0.662 for the first, 2.6 for the second.

“ACGAGTCCTTGGGTTCTAACCTGTTGCGT (site ACGAGTCCTAG)” and “ACGCAATCTTGGGTTCTAACCTGTTGCCT (site ACGCAATCTAG)” are within 0.2 log units of each other in “recombinant barcode read abundance (log10)” value: 0.202 for the first, 0.0303 for the second.

“ACGCAATCTTGGGTTCTAACCTGTTGCCT (site ACGCACTCTAG)” and “ACGCAATCTTGGGTTCTAACCTGTTGCCT (site ACGCAGTCTAG)” are within 0.2 log units of each other in “recombinant barcode read abundance (log10)” value: 0.0895 for the first, 0.131 for the second.

Compared with “ACGCAATCTTGGGTTCTAACCTGTTGCCT (site ACGCATTCTAG)”, “ACGCACTCTTGGGTTCTAACCTGTTGCCG (site ACGCACTCTCG)” is higher in “recombinant barcode read abundance (log10)” value: 0.157 for the first, 0.646 for the second.

“ACGCACTCTTGGGTTCTAACCTGTTGCCG (site GATGGTACTAT)” and “ACGCATTCTTGGGTTCTAACCTGTTGCCT (site ACGCAATCTAG)” are within 0.2 log units of each other in “recombinant barcode read abundance (log10)” value: 0.0148 for the first, 0.0565 for the second.

“ACGCATTCTTGGGTTCTAACCTGTTGCCT (site ACGCACTCTAG)” and “ACGCATTCTTGGGTTCTAACCTGTTGCCT (site ACGCAGTCTAG)” are within 0.2 log units of each other in “recombinant barcode read abundance (log10)” value: 0.123 for the first, 0.0603 for the second.

Compared with “ACGCATTCTTGGGTTCTAACCTGTTGCCT (site ACGCATTCTAG)”, “ACGCGCCCTTGGGTTCTAACCTGTTGCAC (site ACGCGCCCTGT)” is lower in “recombinant barcode read abundance (log10)” value: 0.355 for the first, 0.152 for the second.

“ACGCGCCCTTGGGTTCTAACCTGTTGCAC (site CCGCGCCCTAT)” and “ACGCTATCTTGGGTTCTAACCTGTTGCTT (site ACGCTATCTAA)” are within 0.2 log units of each other in “recombinant barcode read abundance (log10)” value: 0.0707 for the first, 0.13 for the second.

“ACGCTATCTTGGGTTCTAACCTGTTGCTT (site CTAGCGACTCG)” and “ACGGCATCTTGGGTTCTAACCTGTTGCCT (site ACGGCATCTAG)” are within 0.2 log units of each other in “recombinant barcode read abundance (log10)” value: 0.159 for the first, 0.0883 for the second.

Compared with “ACGGCATCTTGGGTTCTAACCTGTTGCCT (site ACGGCCTCTAA)”, “ACGGGCTCTTGGGTTCTAACCTGTTGCTT (site ACGGGCTCTAA)” is higher in “recombinant barcode read abundance (log10)” value: 0.225 for the first, 2.69 for the second.

First: ACGGGCTCTTGGGTTCTAACCTGTTGCTT (site AGGGGCTCTCA)
Second: ACGGTCACTTGGGTTCTAACCTGTTGCCG (site ACGGTCACTCG)
The “recombinant barcode read abundance (log10)” value of the first is lower: 0.032 for the first, 0.435 for the second.

Going from “ACGGTCACTTGGGTTCTAACCTGTTGCCG (site AGGGGCACTCG)” to “ACGTCAACTTGGGTTCTAACCTGTTGCCT (site ACATCAACTAG)”, the “recombinant barcode read abundance (log10)” value falls from 0.533 to 0.192.

Compared with “ACGTCAACTTGGGTTCTAACCTGTTGCCT (site ACCTCAACTAG)”, “ACGTCAACTTGGGTTCTAACCTGTTGCCT (site ACGTCAACTAG)” is lower in “recombinant barcode read abundance (log10)” value: 0.454 for the first, 0.0389 for the second.

“ACGTCAACTTGGGTTCTAACCTGTTGCCT (site ACTTCAACTAG)” and “ACGTTTCCTTGGGTTCTAACCTGTTGCAT (site AAGTTTCCTAC)” are within 0.2 log units of each other in “recombinant barcode read abundance (log10)” value: 0.0307 for the first, 0.0104 for the second.

“ACGTTTCCTTGGGTTCTAACCTGTTGCAT (site ACGTTTCCTAT)” and “ACTAAGTCTTGGGTTCTAACCTGTTGCCT (site AATAAGTCTAG)” are within 0.2 log units of each other in “recombinant barcode read abundance (log10)” value: 0.0487 for the first, 0.106 for the second.

Going from “ACTAAGTCTTGGGTTCTAACCTGTTGCCT (site ACTAAGTCTAG)” to “ACTAAGTCTTGGGTTCTAACCTGTTGCCT (site AGTAAGTCTAG)”, the “recombinant barcode read abundance (log10)” value falls from 0.53 to 0.0249.

“ACTAAGTCTTGGGTTCTAACCTGTTGCCT (site ATTAAGTCTAG)” and “ACTACTACTTGGGTTCTAACCTGTTGCCA (site ACTACTACTTG)” are within 0.2 log units of each other in “recombinant barcode read abundance (log10)” value: 0.0792 for the first, 0.0676 for the second.
